Experimental data: a compilation of properties of binary mixtures (doi:10.1021/jp403813g)

Test: xn = mol fraction of the nth substance listed
Conditions: 100 kPa

With `CS(C)=O` + CCCC[n+]1ccn(C)c1.[Cl-] as the compound, how does the speed of sound (313.15 K, x2 = 0) read?
Its speed of sound is 1442 m/s.

For `CS(C)=O` + CC[n+]1ccn(C)c1.[Cl-], which speed of sound (298.15 K, x2 = 0) is on record?
Its speed of sound is 1496 m/s.

And the speed of sound (303.15 K, x2 = 0)?
Its speed of sound is 1472 m/s.

Which results are given for `CC[n+]1ccn(C)c1.[Cl-]` + CS(C)=O?
speed of sound (298.15 K, x1 = 0.0453): 1517 m/s; speed of sound (298.15 K, x1 = 0.0677): 1532 m/s; speed of sound (298.15 K, x1 = 0.0984): 1551 m/s; speed of sound (298.15 K, x1 = 0.1236): 1563 m/s; speed of sound (298.15 K, x1 = 0.1619): 1582 m/s; speed of sound (298.15 K, x1 = 0.3737): 1675 m/s; speed of sound (298.15 K, x1 = 0.4429): 1701 m/s; speed of sound (298.15 K, x1 = 0.5264): 1730 m/s; speed of sound (298.15 K, x1 = 0.7986): 1828 m/s; speed of sound (298.15 K, x1 = 0.8944): 1869 m/s; speed of sound (298.15 K, x1 = 0.9396): 1893 m/s; speed of sound (298.15 K, x1 = 0.9694): 1910 m/s; speed of sound (298.15 K, x1 = 1): 1935 m/s; speed of sound (298.15 K, x2 = 0.0071): 1929 m/s; speed of sound (303.15 K, x1 = 0.0677): 1509 m/s; speed of sound (303.15 K, x1 = 0.0984): 1527 m/s; speed of sound (303.15 K, x1 = 0.1236): 1539 m/s; speed of sound (303.15 K, x1 = 0.1619): 1560 m/s; speed of sound (303.15 K, x1 = 0.2143): 1583 m/s; speed of sound (303.15 K, x1 = 0.3737): 1652 m/s; speed of sound (303.15 K, x1 = 0.4429): 1678 m/s; speed of sound (303.15 K, x1 = 0.5264): 1709 m/s; speed of sound (303.15 K, x1 = 0.6072): 1736 m/s; speed of sound (303.15 K, x1 = 0.7477): 1787 m/s; speed of sound (303.15 K, x1 = 0.7986): 1812 m/s; speed of sound (303.15 K, x1 = 0.8501): 1833 m/s; speed of sound (303.15 K, x1 = 0.8944): 1855 m/s; speed of sound (303.15 K, x1 = 0.9396): 1880 m/s; speed of sound (303.15 K, x1 = 0.9694): 1894 m/s; speed of sound (303.15 K, x1 = 1): 1923 m/s; speed of sound (303.15 K, x2 = 0.0071): 1914 m/s; speed of sound (308.15 K, x1 = 0.0194): 1473 m/s; speed of sound (308.15 K, x1 = 0.0453): 1485 m/s; speed of sound (308.15 K, x1 = 0.0677): 1498 m/s; speed of sound (308.15 K, x1 = 0.0984): 1516 m/s; speed of sound (308.15 K, x1 = 0.1236): 1527 m/s; speed of sound (308.15 K, x1 = 0.1619): 1547 m/s; speed of sound (308.15 K, x1 = 0.2143): 1571 m/s; speed of sound (308.15 K, x1 = 0.3737): 1638 m/s; speed of sound (308.15 K, x1 = 0.4429): 1665 m/s; speed of sound (308.15 K, x1 = 0.5264): 1694 m/s; speed of sound (308.15 K, x1 = 0.6072): 1723 m/s; speed of sound (308.15 K, x1 = 0.7477): 1776 m/s; speed of sound (308.15 K, x1 = 0.7986): 1801 m/s; speed of sound (308.15 K, x1 = 0.8501): 1822 m/s; speed of sound (308.15 K, x1 = 0.8944): 1843 m/s; speed of sound (308.15 K, x1 = 0.9396): 1869 m/s; speed of sound (308.15 K, x1 = 0.9694): 1883 m/s; speed of sound (308.15 K, x1 = 1): 1918 m/s; speed of sound (308.15 K, x2 = 0.0071): 1903 m/s; speed of sound (313.15 K, x1 = 0.0194): 1455 m/s; speed of sound (313.15 K, x1 = 0.0677): 1480 m/s; speed of sound (313.15 K, x1 = 0.1236): 1508 m/s; speed of sound (313.15 K, x1 = 0.1619): 1528 m/s; speed of sound (313.15 K, x1 = 0.2143): 1550 m/s; speed of sound (313.15 K, x1 = 0.2927): 1586 m/s; speed of sound (313.15 K, x1 = 0.3737): 1618 m/s; speed of sound (313.15 K, x1 = 0.4429): 1645 m/s; speed of sound (313.15 K, x1 = 0.5264): 1675 m/s; speed of sound (313.15 K, x1 = 0.6072): 1705 m/s; speed of sound (313.15 K, x1 = 0.7477): 1758 m/s; speed of sound (313.15 K, x1 = 0.7986): 1783 m/s; speed of sound (313.15 K, x1 = 0.8501): 1804 m/s; speed of sound (313.15 K, x1 = 0.8944): 1826 m/s; speed of sound (313.15 K, x1 = 0.9396): 1854 m/s; speed of sound (313.15 K, x1 = 0.9694): 1868 m/s; speed of sound (313.15 K, x1 = 1): 1894 m/s; speed of sound (313.15 K, x2 = 0.0071): 1887 m/s

For `CCCC[n+]1ccn(C)c1.[Cl-]` + CS(C)=O, which speed of sound (313.15 K, x1 = 0.0341) is on record?
The speed of sound was 1491 m/s.

What about the speed of sound (313.15 K, x1 = 0.1122) of the same compound?
The speed of sound was 1569 m/s.

And the speed of sound (313.15 K, x1 = 0.2433)?
Its speed of sound is 1650 m/s.

And the speed of sound (313.15 K, x1 = 0.3032)?
The speed of sound was 1674 m/s.

And the speed of sound (313.15 K, x1 = 0.3705)?
The speed of sound was 1696 m/s.

And the speed of sound (313.15 K, x1 = 0.4746)?
Its speed of sound is 1732 m/s.

What about the speed of sound (313.15 K, x1 = 0.5997) of the same compound?
The speed of sound was 1773 m/s.

What about the speed of sound (313.15 K, x1 = 0.7115) of the same compound?
The speed of sound was 1794 m/s.

What about the speed of sound (313.15 K, x1 = 0.843) of the same compound?
The speed of sound was 1816 m/s.

What about the speed of sound (313.15 K, x1 = 0.9445) of the same compound?
Its speed of sound is 1829 m/s.
